These results are taken from paper PMC3510438, “The transmembrane tyrosines Y56, Y91 and Y167 play important roles in determining the affinity and transport rate of the rabbit proton-coupled peptide transporter PepT1” (The International Journal of Biochemistry & Cell Biology, 2009).

Common to all, as to assay: Uptake of tracer [3H]-D-Phe-L-Gln into Xenopus oocytes
What all share (assay type): cell-based, rabbit

The target in one assay is T1, Y56F-rPepT1 (Oryctolagus cuniculus, UniProt P36836, Y56F).
T1 construct: expressed in transfected cells; host or cells: Xenopus laevis oocytes injected with cRNA
T1 sequence (P36836 1-707 Y56F): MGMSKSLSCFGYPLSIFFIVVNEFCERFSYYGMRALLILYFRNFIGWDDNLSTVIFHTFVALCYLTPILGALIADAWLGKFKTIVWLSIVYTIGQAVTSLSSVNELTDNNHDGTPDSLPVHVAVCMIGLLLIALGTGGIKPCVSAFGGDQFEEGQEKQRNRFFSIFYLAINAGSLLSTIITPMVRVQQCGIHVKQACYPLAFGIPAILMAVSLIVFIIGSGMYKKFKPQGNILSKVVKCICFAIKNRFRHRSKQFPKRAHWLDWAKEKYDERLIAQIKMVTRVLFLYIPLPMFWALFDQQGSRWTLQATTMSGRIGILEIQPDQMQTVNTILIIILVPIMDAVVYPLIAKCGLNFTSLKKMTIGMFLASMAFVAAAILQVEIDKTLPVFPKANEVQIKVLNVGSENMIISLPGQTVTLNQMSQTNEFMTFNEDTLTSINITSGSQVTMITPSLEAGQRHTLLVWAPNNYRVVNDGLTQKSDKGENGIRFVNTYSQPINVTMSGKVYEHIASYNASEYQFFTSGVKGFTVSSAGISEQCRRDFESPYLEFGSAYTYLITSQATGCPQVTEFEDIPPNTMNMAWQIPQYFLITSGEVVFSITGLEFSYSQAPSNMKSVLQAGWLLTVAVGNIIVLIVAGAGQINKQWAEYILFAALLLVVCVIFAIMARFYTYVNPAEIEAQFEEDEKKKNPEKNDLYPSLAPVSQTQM
To be noted: pHout 5.5; 1 h. The procedure:
(§1) rPepT1 constructs were linearised with XbaI (New England Biolabs, UK) and cRNA generated by in vitro transcription (T7 mMessage mMachine, Ambion, Cambridgeshire, UK). Xenopus laevis oocytes were obtained under MS222 anaesthesia (0.2%, w/v) in accordance with the UK Animals (Scientific Procedures) Act, 1986, and maintained at 18 °C in modified Barth's medium (88 mM NaCl, 1 mM KCl, 0.82 mM MgSO4, 2.4 mM NaHCO3, 0.42 mM CaCl2, 10 mM Hepes, 5 mM sodium pyruvate, 50 μg ml^−1 gentamicin (Fluka, Poole, UK), adjusted to pH 7.6 with 1 M NaOH). Transport measurements were performed at least 72 h after micro-injection of oocytes with 27nl cRNA (1 μg/μl), with medium changed daily.
(§2) Uptake of [^3H]-D-Phe-L-Gln (17.4 Ci/mmole, custom synthesised, Cambridge Research Biochemicals, Stockton-on-Tees, UK) was performed as previously described ([Meredith, 2004]). Briefly, 5 oocytes were incubated in 100 μl of uptake medium (95 mM NaCl, 2 mM KCl, 1 mM CaCl2, 0.42 mM MgCl2, 10 mM Tris/Hepes pH 7.4 or Tris/Mes pH 5.5) with tracer (0.4 μM) [^3H]-D-Phe-L-Gln. After incubation, the oocytes were washed sequentially five times in 1 ml of ice-cold 120 mM NaCl solution, lysed individually with 100 μl 2% (w/v) SDS and liquid scintillation counted. As a control non-injected oocytes were also incubated in uptake medium with D-Phe-L-Gln as above.

In another assay the target is T2, T58Y-rPepT1 (Oryctolagus cuniculus, UniProt P36836, T58Y).
T2 construct: expressed in transfected cells; host or cells: Xenopus laevis oocytes injected with cRNA
T2 sequence (P36836 1-707 T58Y): T1 sequence (P36836 1-707 Y56F) with F56Y, T58Y
To be noted: both pHout 5.5 and 7.4. The procedure: as §1, §2

The next assay addresses T3, Y56F/T58Y-rPepT1 (Oryctolagus cuniculus, UniProt P36836, T58Y/Y56F).
T3 construct: expressed in transfected cells; host or cells: Xenopus laevis oocytes injected with cRNA
T3 sequence (P36836 1-707 Y56F/T58Y): T1 sequence (P36836 1-707 Y56F) with T58Y
To be noted: both pHout 5.5 and 7.4. As to the method:
as §1, §2

Numbering of substitutions follows the chain as printed.

[^3H]-D-Phe-L-Gln: the “decrease in rate of uptake compared to the wild-type” value at Y56F-rPepT1 is recorded as around 90%. Further, the “reduction of transport function compared to the wild-type” value on T58Y-rPepT1 is above 70%. In addition, the “reduction of uptake compared to the wild-type” value on Y56F/T58Y-rPepT1 is on record as above 90%.
